Measurements taken from patent US9045445B2, “Glycine transporter-1 inhibitors, methods of making them, and uses thereof” (Albany Molecular Research, Inc., priority 2010, dated 2015).
Where a name gives a salt, the structure may show the parent alone.

How the values were obtained:
[1] = molecular target: T1, glycine transporter-1 (GlyT-1) (Homo sapiens, UniProt P48067); assay: [14C]glycine uptake assay in JAR cells endogenously expressing GlyT-1 (scintillation proximity); format: cell-based; settings: JAR cells, [14C]glycine 5 μM, 3 hour incubation; read-out: GlyT-1 IC50
T1 construct: JAR cells (ATCC#HTB-144), which endogenously express GlyT-1; host or cells: JAR human choriocarcinoma cells
T1 sequence (P48067 1-706): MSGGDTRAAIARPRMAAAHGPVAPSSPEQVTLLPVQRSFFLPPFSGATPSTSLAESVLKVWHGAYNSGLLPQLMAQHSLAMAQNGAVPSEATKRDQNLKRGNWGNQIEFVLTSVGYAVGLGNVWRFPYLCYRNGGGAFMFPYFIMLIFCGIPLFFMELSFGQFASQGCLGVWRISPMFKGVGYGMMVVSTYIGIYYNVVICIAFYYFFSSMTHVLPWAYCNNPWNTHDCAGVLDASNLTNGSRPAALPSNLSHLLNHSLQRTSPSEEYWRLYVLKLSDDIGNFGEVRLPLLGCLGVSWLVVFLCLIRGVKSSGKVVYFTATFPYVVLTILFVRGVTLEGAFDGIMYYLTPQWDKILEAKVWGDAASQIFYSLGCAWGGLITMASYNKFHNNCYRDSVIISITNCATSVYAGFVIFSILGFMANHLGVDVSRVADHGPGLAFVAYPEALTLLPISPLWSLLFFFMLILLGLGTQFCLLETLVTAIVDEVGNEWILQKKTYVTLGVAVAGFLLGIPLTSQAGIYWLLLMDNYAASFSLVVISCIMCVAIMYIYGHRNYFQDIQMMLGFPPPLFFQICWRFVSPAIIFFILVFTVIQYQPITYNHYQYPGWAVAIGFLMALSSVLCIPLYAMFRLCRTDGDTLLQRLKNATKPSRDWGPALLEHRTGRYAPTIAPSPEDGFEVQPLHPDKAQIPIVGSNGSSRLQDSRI
Method in brief: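 Human choriocarcinoma JAR cells (endogenous GlyT-1) attached overnight, then pre-incubated 10 min at room temperature with compound in pH 7.4 Hepes uptake buffer containing 5 mM alanine and 0.75% DMSO. Uptake of 5 μM [14C]glycine over 3 h at 37 °C read by scintillation proximity; IC50 from four-parameter fit of nine-point curves.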

[2] = molecular target: T2, glycine transporter-2 (GlyT-2) (Homo sapiens, UniProt Q9Y345); assay: [14C]glycine uptake assay in HEK-GlyT-2 transfected cells; format: cell-based; settings: HEK-GlyT-2 cells
T2 construct: expressed in transfected cells
T2 sequence (Q9Y345 1-797): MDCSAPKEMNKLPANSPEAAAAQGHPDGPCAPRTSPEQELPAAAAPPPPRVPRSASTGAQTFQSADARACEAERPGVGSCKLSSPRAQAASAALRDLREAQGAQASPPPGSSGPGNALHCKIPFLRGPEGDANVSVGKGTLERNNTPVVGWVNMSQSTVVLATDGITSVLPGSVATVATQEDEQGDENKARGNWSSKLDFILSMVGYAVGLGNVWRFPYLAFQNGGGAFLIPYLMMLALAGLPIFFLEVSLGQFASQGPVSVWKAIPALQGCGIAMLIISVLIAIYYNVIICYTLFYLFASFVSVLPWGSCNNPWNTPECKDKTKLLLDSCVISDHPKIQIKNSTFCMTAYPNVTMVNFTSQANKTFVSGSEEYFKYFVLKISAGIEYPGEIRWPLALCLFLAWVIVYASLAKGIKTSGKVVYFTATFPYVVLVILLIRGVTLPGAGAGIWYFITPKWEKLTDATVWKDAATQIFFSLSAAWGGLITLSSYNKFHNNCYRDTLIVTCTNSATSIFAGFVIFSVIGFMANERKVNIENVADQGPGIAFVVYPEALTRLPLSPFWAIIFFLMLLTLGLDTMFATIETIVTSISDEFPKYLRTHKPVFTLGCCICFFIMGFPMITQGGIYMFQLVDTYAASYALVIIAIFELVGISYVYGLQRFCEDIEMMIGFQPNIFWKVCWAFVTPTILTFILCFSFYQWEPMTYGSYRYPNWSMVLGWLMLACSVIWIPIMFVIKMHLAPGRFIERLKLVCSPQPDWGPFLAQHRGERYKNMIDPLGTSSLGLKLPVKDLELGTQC

| SMILES | IC50 [1] | IC50 [2] |
| --- | --- | --- |
| CCCS(=O)(=O)N1CCN(C2(CNC(=O)c3ccc(Cl)cc3Cl)CCCCCC2)CC1 [compound 60, 2,4-Dichloro-N-((1-(4-(propylsulfonyl)piperazin-1-yl)cycloheptyl)methyl) benzamide Hydrochloride] | 0.011 µM | > 75 µM |
| CCCS(=O)(=O)N1CCN(C2(CNC(=O)c3ccc(C(F)(F)F)cc3)CCCCCC2)CC1 [compound 61, N-((1-(4-(Propylsulfonyl)piperazin-1-yl)cycloheptyl)methyl)-4-(trifluoromethyl) benzamide Hydrochloride] | 0.105 µM | 28 µM |
| CCCS(=O)(=O)N1CCN(C2(CNC(=O)c3ccc(OC(F)(F)F)cc3)CCCCCC2)CC1 [compound 62, N-((1-(4-(Propylsulfonyl)piperazin-1-yl)cycloheptyl)methyl)-4-(trifluoromethoxy) benzamide Hydrochloride] | 0.081 µM | 3.64 µM |
| CCCS(=O)(=O)N1CCN(C2(CNC(=O)c3ccccc3F)CCCCCC2)CC1 [compound 63, 2-Fluoro-N-((1-(4-(propylsulfonyl)piperazin-1-yl)cycloheptyl)methyl) benzamide Hydrochloride] | 0.099 µM | > 75 µM |
| CCCS(=O)(=O)N1CCN(C2(CNC(=O)c3c(Cl)cccc3Cl)CCCCCC2)CC1 [compound 64, 2,6-Dichloro-N-((1-(4-(propylsulfonyl)piperazin-1-yl)cycloheptyl)methyl) benzamide Hydrochloride] | 0.011 µM | > 75 µM |
| CCCS(=O)(=O)N1CCN(C2(CNC(=O)c3cccc(OC)c3Cl)CCCCCC2)CC1 [compound 65, 2-Chloro-3-methoxy-N-((1-(4-(propylsulfonyl)piperazin-1-yl)cycloheptyl)methyl) benzamide Hydrochloride] | 0.204 µM | > 75 µM |
| CCCS(=O)(=O)N1CCN(C2(CNC(=O)c3c(F)cccc3F)CCCCCC2)CC1 [compound 66, 2,6-Difluoro-N-((1-(4-(propylsulfonyl)piperazin-1-yl)cycloheptyl)methyl) benzamide Hydrochloride] | 0.029 µM | > 45 µM |
| CCCS(=O)(=O)N1CCN(C2(CNC(=O)c3ccc(Cl)c(Cl)c3)CCCCCC2)CC1 [compound 68, 3,4-Dichloro-N-((1-(4-(propylsulfonyl)piperazin-1-yl)cycloheptyl)methyl) benzamide Hydrochloride] | 0.174 µM | 3.15 µM |
| CCCS(=O)(=O)N1CCN(C2(CNC(=O)c3c(C)cc(F)cc3OC)CCCCCC2)CC1 [compound 69, 4-Fluoro-2-methoxy-6-methyl-N-((1-(4-(propylsulfonyl)piperazin-1-yl)cycloheptyl)methyl) benzamide Hydrochloride] | 0.004 µM | > 75 µM |
| CCCS(=O)(=O)N1CCN(C2(CNC(=O)c3c(OC)cc(C(F)(F)F)cc3C(F)(F)F)CCCCCC2)CC1 [compound 70, 2-Methoxy-N-((1-(4-(propylsulfonyl)piperazin-1-yl)cycloheptyl)methyl)-4,6-bis(trifluoromethyl) benzamide Hydrochloride] | 0.009 µM | > 75 µM |
| CCCS(=O)(=O)N1CCN(C2(CNC(=O)c3ccc(F)cc3C(F)(F)F)CCCCCC2)CC1 [compound 71, 4-Fluoro-N-((1-(4-(propylsulfonyl)piperazin-1-yl)cycloheptyl)methyl)-2-(trifluoromethyl)benzamide Hydrochloride] | 0.022 µM | > 75 µM |
| CCCS(=O)(=O)N1CCN(C2(CNC(=O)c3ccc(Cl)cc3Cl)CCCC2)CC1 [compound 72, 2,4-Dichloro-N-((1-(4-(propylsulfonyl)piperazin-1-yl)cyclopentyl)methyl) benzamide Hydrochloride] | 0.171 µM | > 75 µM |
| CCCS(=O)(=O)N1CCN(C2(CNC(=O)c3c(OC)cc(F)cc3SC)CCCC2)CC1 [compound 74, 4-Fluoro-2-methoxy-6-(methylthio)-N-((1-(4-(propylsulfonyl)piperazin-1-yl)cyclopentyl)methyl) benzamide Hydrochloride] | 0.131 µM | > 75 µM |
| CCCS(=O)(=O)N1CCN(C2(CNC(=O)c3c(C)cc(F)cc3OC)CCCC2)CC1 [compound 75, 4-Fluoro-2-methoxy-6-methyl-N-((1-(4-(propylsulfonyl)piperazin-1-yl)cyclopentyl)methyl) benzamide Hydrochloride] | 0.268 µM | > 75 µM |
| CCCS(=O)(=O)N1CCN(C2(CNC(=O)c3c(N)cccc3Cl)CCCC2)CC1 [compound 77, 2-Amino-6-chloro-N-((1-(4-(propylsulfonyl)piperazin-1-yl)cyclopentyl)methyl) benzamide Hydrochloride] | 0.183 µM | > 30 µM |
| COc1cc(F)cc(C)c1C(=O)NCC1(N2CCN(S(=O)(=O)CC3CC3)CC2)CCCCC1 [compound 79, N-((1-(4-(Cyclopropylmethyl-sulfonyl)piperazin-1-yl)cyclohexyl)methyl)-4-fluoro-2-methoxy-6-methylbenzamide Hydrochloride] | 0.029 µM | > 75 µM |
| Cc1cccc(F)c1C(=O)NCC1(N2CCN(S(=O)(=O)CC3CC3)CC2)CCCCC1 [compound 80, N-((1-(4-(Cyclopropylmethyl-sulfonyl)piperazin-1-yl)cyclohexyl)methyl)-2-fluoro-6-methylbenzamide Hydrochloride] | 0.029 µM | > 75 µM |
| O=C(NCC1(N2CCN(S(=O)(=O)CC3CC3)CC2)CCCCC1)c1c(F)cccc1F [compound 81, N-((1-(4-(Cyclopropylmethyl-sulfonyl)piperazin-1-yl)cyclohexyl)methyl)-2,6-difluorobenzamide Hydrochloride] | 0.061 µM | > 75 µM |
| COc1cc(F)cc(SC)c1C(=O)NCC1(N2CCN(S(=O)(=O)CC3CC3)CC2)CCCCC1 [compound 82, N-((1-(4-(Cyclopropylmethyl-sulfonyl)piperazin-1-yl)cyclohexyl)methyl)-4-fluoro-2-methoxy-6-(methylthio)benzamide Hydrochloride] | 0.05 µM | > 75 µM |
| COc1cccc(F)c1C(=O)NCC1(N2CCN(S(=O)(=O)CC3CC3)CC2)CCCCC1 [compound 83, N-((1-(4-(Cyclopropylmethyl-sulfonyl)piperazin-1-yl)cyclohexyl)methyl)-2-fluoro-6-methoxybenzamide Hydrochloride] | 0.057 µM | > 75 µM |
| O=C(NCC1(N2CCN(S(=O)(=O)CC3CC3)CC2)CCCCC1)c1ccc(Cl)cc1Cl [compound 84, 2,4-Dichloro-N-((1-(4-(cyclopropylmethyl-sulfonyl)piperazin-1-yl)cyclohexyl)methyl) benzamide Hydrochloride] | 0.056 µM | > 75 µM |
| Cc1cc(F)ccc1C(=O)NCC1(N2CCN(S(=O)(=O)CC3CC3)CC2)CCCCCC1 [compound 85, N-((1-(4-(Cyclopropylmethyl-sulfonyl)piperazin-1-yl)cycloheptyl)methyl)-4-fluoro-2-methylbenzamide Hydrochloride] | 0.182 µM | > 75 µM |
| COc1cc(F)cc(C)c1C(=O)NCC1(N2CCN(S(=O)(=O)CC3CC3)CC2)CCCCCC1 [compound 86, N-((1-(4-(Cyclopropylmethyl-sulfonyl)piperazin-1-yl)cycloheptyl)methyl)-4-fluoro-2-methoxy-6-methylbenzamide Hydrochloride] | 0.099 µM | > 75 µM |
